In ChEMBL document CHEMBL5303711, “ECBD screening data for assay EOS300108” (2023):
Counter-ions that a name gives are not always drawn. Calls of active or inactive are those of the source. How the calls were made is not given here.

Assay: Cytotoxicity activity against human HepG2 cells assessed by CellTiter-Glo luminescent cell viability assay.
Type: toxicity, cell-based
Parameters: assay stage confirmatory assay, source tissue liver
Details: HepG2 cells, read-out: IC50 relative

| SMILES | CC50 |
| --- | --- |
| O=C(Nc1c[nH]nc1-c1nc2cc(CN3CCOCC3)ccc2[nH]1)NC1CC1 [AT-9283] | 1.2 µM (active) |
| N#Cc1ccc2[nH]c(O)c(-c3ccc(CN4CCOCC4)cn3)c2c1 [AZD-1080] | 7.3 µM (active) |
| Cc1cc(Nc2nc(N[C@@H](C)c3ncc(F)cn3)ncc2Cl)n[nH]1 [AZD-1480] | 7.9 µM (active) |
| Cc1ncc(-c2ccnc(Nc3ccc(S(C)(=O)=O)cc3)n2)n1C(C)C [AZD-5438] | 0.6 µM (active) |
| NC(=O)Nc1cc(-c2cccc(F)c2)sc1C(=O)N[C@H]1CCCNC1 [AZD-7762] | 0.9 µM (active) |
| COc1ccc(-c2ccc3c(N4CCOC[C@@H]4C)nc(N4CCOC[C@@H]4C)nc3n2)cc1CO [AZD-8055] | 0.1 µM (active) |
| CN1CCCC(n2nc(Cc3ccc(Cl)cc3)c3ccccc3c2=O)CC1 (configuration not stated) [AZELASTINE HYDROCHLORIDE] | 10 µM (active) |
| CCCCc1nc(-c2ccc(OCCCN(CC)CC)cc2)cn1-c1ccc(Oc2ccc(Cl)cc2)cc1 [AZELIRAGON] | 1.2 µM (active) |
| Cc1ccc(NC(=O)c2ccc(CN3CC[C@H](N(C)C)C3)c(C(F)(F)F)c2)cc1Nc1nccc(-c2cncnc2)n1 [BAFETINIB] | 0.9 µM (active) |
| CC1(C)CC[C@]2(C(=O)O)CC[C@]3(C)[C@H](C(=O)C=C4[C@@]5(C)C=C(C#N)C(=O)C(C)(C)[C@@H]5CC[C@]43C)[C@@H]2C1 [BARDOXOLONE] | 3.7 µM (active) |
| Nc1nc(Nc2ccc3c(c2)CC[C@@H](N2CCCC2)CC3)nn1-c1cc2c(nn1)-c1ccccc1CCC2 [BEMCENTINIB] | 1.2 µM (active) |
| COc1ccc2cc3[n+](cc2c1OC)CCc1cc2c(cc1-3)OCO2 [BERBERINE CHLORIDE] | 14.4 µM (inactive) |
| CNCc1ccc(-c2cc(-c3nc(-c4ccc(S(=O)(=O)C(C)C)cc4)cnc3N)on2)cc1 [BERZOSERTIB] | 2.7 µM (active) |
| CC[C@@H]1C(=O)N(C)c2cnc(Nc3ccc(C(=O)NC4CCN(C)CC4)cc3OC)nc2N1C1CCCC1 [BI-2536] | 1.2 µM (active) |
| COc1c(C)cnc(Cn2cnc3c(Cl)nc(N)nc32)c1C [BIIB021] | 0.4 µM (active) |
| Cn1cnc2c(F)c(Nc3ccc(Br)cc3F)c(C(=O)NOCCO)cc21 [BINIMETINIB] | < 0.1 µM (active) |
| Cc1sc2c(c1C)C(c1ccc(Cl)cc1)=N[C@@H](CC(=O)Nc1ccc(O)cc1)c1nnc(C)n1-2 [BIRABRESIB] | 1.3 µM (active) |
| Oc1c(Cl)cc(Cl)cc1Sc1cc(Cl)cc(Cl)c1O [BITHIONOL] | 14.6 µM (inactive) |
| CC(C)C[C@H](NC(=O)[C@H](Cc1ccccc1)NC(=O)c1cnccn1)B(O)O [BORTEZOMIB] | < 0.1 µM (active) |
| COc1cc(Nc2c(C#N)cnc3cc(OCCCN4CCN(C)CC4)c(OC)cc23)c(Cl)cc1Cl [BOSUTINIB] | 1.8 µM (active) |
| O=c1ccc2ccc(OCCCCN3CCN(c4cccc5sccc45)CC3)cc2[nH]1 [BREXPIPRAZOLE] | 8.4 µM (active) |
| COc1cc(N2CCC(N3CCN(C)CC3)CC2)ccc1Nc1ncc(Cl)c(Nc2ccccc2P(C)(C)=O)n1 [BRIGATINIB] | 5.7 µM (active) |
| C[C@@H]1CN(Cc2ccc(F)cc2)CCN1C(=O)COc1ccc(Cl)cc1NC(N)=O [BX 471 FREE BASE] | 4.8 µM (active) |

| SMILES | CC50 |
| --- | --- |
| O=C(NCCCNc1nc(Nc2cccc(NC(=O)N3CCCC3)c2)ncc1I)c1cccs1 [BX-795] | 5.2 µM (active) |
| COc1cc2nccc(Oc3ccc(NC(=O)C4(C(=O)Nc5ccc(F)cc5)CC4)cc3)c2cc1OC [CABOZANTINIB] | 9.5 µM (active) |
| O=C(/C=C/c1ccc(O)c(O)c1)OCCc1ccccc1 [CAFFEIC ACID PHENETHYL ESTER] | 4.7 µM (active) |
| CC[C@@]1(O)C(=O)OCc2c1cc1n(c2=O)Cc2cc3ccccc3nc2-1 [CAMPTOTHECIN] | 0.2 µM (active) |
| CCOc1nc2cccc(C(=O)OC(C)OC(=O)OC3CCCCC3)c2n1Cc1ccc(-c2ccccc2-c2nnn[nH]2)cc1 (configuration not stated) [CANDESARTAN CILEXETIL] | 10.7 µM (active) |
| C=CC(=O)Nc1cc2c(Nc3ccc(F)c(Cl)c3)ncnc2cc1OCCCN1CCOCC1 [CANERTINIB] | 50 µM (inactive) |
| COc1cc(O)cc(O)c1C(=O)/C=C/c1ccccc1 [CARDAMOMIN] | 18.3 µM (inactive) |
| CN(C)C(=O)N[C@H]1CC[C@H](CCN2CCN(c3cccc(Cl)c3Cl)CC2)CC1 [CARIPRAZINE HYDROCHLORIDE] | 14.1 µM (active) |
| COc1cc2c(Oc3ccc4[nH]c(C)cc4c3F)ncnc2cc1OCCCN1CCCC1 [CEDIRANIB] | 2.5 µM (active) |
| CNC(=O)c1ccccc1Nc1nc(Nc2ccc3c(c2OC)CCC[C@H](N2CCN(CCO)CC2)C3)ncc1Cl [CEP-37440] | 0.8 µM (active) |
| Cc1cc(Nc2ncc(Cl)c(Nc3ccccc3S(=O)(=O)C(C)C)n2)c(OC(C)C)cc1C1CCNCC1 [CERITINIB] | 0.7 µM (active) |
| COc1cc2c(cc1OC(C)C)[C@H](c1ccc(Cl)cc1)N(c1ccc(N(C)C[C@H]3CC[C@H](N4CCN(C)C(=O)C4)CC3)cc1)C(=O)C2 [CGM-097] | 6.3 µM (active) |
| [H]/N=C(\N/C(=N/[H])NCCCCCCNC(=N)NC(=N)Nc1ccc(Cl)cc1)Nc1ccc(Cl)cc1 [CHLORHEXIDINE] | 4.6 µM (active) |
| CN(C)CCCN1c2ccccc2Sc2ccc(Cl)cc21 [CHLORPROMAZINE HYDROCHLORIDE] | 5.4 µM (active) |
| N#CN=C(NCCCCCCOc1ccc(Cl)cc1)Nc1ccncc1 [CHS-828] | 0.1 µM (active) |
| O=C(NOCC1CC1)c1ccc(F)c(F)c1Nc1ccc(I)cc1Cl [CI-1040] | 0.3 µM (active) |
| C[C@@H](NCCCc1cccc(C(F)(F)F)c1)c1cccc2ccccc12 [CINACALCET HYDROCHLORIDE] | 5.1 µM (active) |
| C[C@H]1Cc2c([nH]c3cc(Cl)c(F)cc23)[C@@]2(N1)C(=O)Nc1ccc(Cl)cc12 [CIPARGAMIN] | 10.8 µM (active) |
| COc1cc(N)c(Cl)cc1C(=O)NC1CCN(CCCOc2ccc(F)cc2)CC1OC (configuration not stated) [CISAPRIDE MONOHYDRATE] | 38 µM (inactive) |
| O=C(CCCCCCNC(=O)c1cnc(N(c2ccccc2)c2ccccc2Cl)nc1)NO [CITARINOSTAT] | 3 µM (active) |
| CN1CCC[C@@H]1CCO[C@](C)(c1ccccc1)c1ccc(Cl)cc1 [CLEMASTINE FUMARATE] | 5.4 µM (active) |
| CN(C)CCCN1c2ccccc2CCc2ccc(Cl)cc21 [CLOMIPRAMINE HYDROCHLORIDE] | 6.5 µM (active) |
| COc1ccc(/C=C\c2cc(OC)c(OC)c(OC)c2)cc1O [COMBRETASTATIN A4] | 1.4 µM (inactive) |

| SMILES | CC50 |
| --- | --- |
| CC1(COc2ccc3c(c2)ncn3-c2ccc3cccc(N4CCC(N)CC4)c3n2)COC1 [CRENOLANIB] | 4.4 µM (active) |
| C[C@@H](Oc1cc(-c2cnn(C3CCNCC3)c2)cnc1N)c1c(Cl)ccc(F)c1Cl [CRIZOTINIB] | 2.8 µM (active) |
| C[C@H]1COC2=C1C(=O)C(=O)c1c2ccc2c1CCCC2(C)C [CRYPTOTANSHINONE] | 3.1 µM (active) |
| C#Cc1cccc(Nc2ncnc3cc(OC)c(OCCCCCCC(=O)NO)cc23)c1 [CUDC-101] | 0.5 µM (active) |
| C[C@@H]1C[C@@H]([C@H](O)CC2CC(=O)NC(=O)C2)C(=O)[C@@H](C)C1 [CYCLOHEXIMIDE] | 0.4 µM (active) |
| CCCCCCOC(=O)NC(=N)c1ccc(NCc2nc3cc(C(=O)N(CCC(=O)OCC)c4ccccn4)ccc3n2C)cc1 [DABIGATRAN ETEXILATE MESYLATE] | 10.2 µM (active) |
| CC(C)(C)c1nc(-c2cccc(NS(=O)(=O)c3c(F)cccc3F)c2F)c(-c2ccnc(N)n2)s1 [DABRAFENIB] | 3.1 µM (active) |
| COc1cc2ncnc(Nc3ccc(F)c(Cl)c3)c2cc1NC(=O)/C=C/CN1CCCCC1 [DACOMITINIB ANHYDROUS] | 6.5 µM (active) |
| Cn1c(=O)n(-c2ccc(C(C)(C)C#N)cc2)c2c3cc(-c4cnc5ccccc5c4)ccc3ncc21 [DACTOLISIB TOSYLATE] | 0.1 µM (active) |
| Cc1cc(C)c(Nc2ccnc(Nc3ccc(C#N)cc3)n2)c(C)c1 [DAPIVIRINE] | 6.5 µM (active) |
| CN(C)[C@@H](CCOc1cccc2ccccc12)c1ccccc1 [DAPOXETINE HYDROCHLORIDE] | 6.3 µM (active) |
| CCN(CC)CCN(Cc1ccc(-c2ccc(C(F)(F)F)cc2)cc1)C(=O)Cn1c(SCc2ccc(F)cc2)nc(=O)c2c1CCC2 [DARAPLADIB] | 1.5 µM (active) |
| NC(=O)C(c1ccccc1)(c1ccccc1)[C@@H]1CCN(CCc2ccc3c(c2)CCO3)C1 [DARIFENACIN HYDROBROMIDE] | 11.1 µM (active) |
| COc1cccc2c1C(=O)c1c(O)c3c(c(O)c1C2=O)C[C@@](O)(C(C)=O)C[C@@H]3O[C@H]1C[C@H](N)[C@H](O)[C@H](C)O1 [DAUNORUBICIN HYDROCHLORIDE] | 0.3 µM (active) |
| CNC(=O)c1ccc(Nc2ncc(C(F)(F)F)c(NCc3nccnc3N(C)S(C)(=O)=O)n2)cc1 [DEFACTINIB] | 1.4 µM (inactive) |
| CC(C)C[C@H](NC(=O)[C@@H](NC(=O)c1cccc(-c2ccccc2)n1)[C@@H](C)O)B(O)O [DELANZOMIB] | < 0.1 µM (active) |
| CN1CCC(Nc2nc(Nc3ccc(Oc4ccccc4)cc3)c3c(=O)[nH]cc(Br)c3n2)CC1 [DENFIVONTINIB] | 0.4 µM (active) |
| Cc1cc(N)c2ccccc2[n+]1CCCCCCCCCC[n+]1c(C)cc(N)c2ccccc21 [DEQUALINIUM CHLORIDE] | 14.4 µM (inactive) |
| CNCCCN1c2ccccc2CCc2ccccc21 [DESIPRAMINE HYDROCHLORIDE] | 11.4 µM (active) |
| C[C@H]1O[C@@H](O[C@H]2[C@@H](O)C[C@H](O[C@H]3[C@@H](O)C[C@H](O[C@H]4CC[C@@]5(C)[C@H](CC[C@@H]6[C@@H]5CC[C@]5(C)[C@@H](C7=CC(=O)OC7)CC[C@]65O)C4)O[C@@H]3C)O[C@@H]2C)C[C@H](O)[C@@H]1O [DIGITOXIN] | 0.1 µM (active) |
| C[C@H]1O[C@@H](O[C@H]2[C@@H](O)C[C@H](O[C@H]3[C@@H](O)C[C@H](O[C@H]4CC[C@@]5(C)[C@H](CC[C@@H]6[C@@H]5C[C@@H](O)[C@]5(C)[C@@H](C7=CC(=O)OC7)CC[C@]65O)C4)O[C@@H]3C)O[C@@H]2C)C[C@H](O)[C@@H]1O [DIGOXIN] | 0.2 µM (active) |
